The source of these data is DBAASP.

Holding throughout (assay): ≥ marks a high value that may be exact or a test limit, other limits are often not marked, values filed in µg/mL are converted to µM
Experiment [1] deals with Bacillus subtilis.
For experiment [2], the system named is Salmonella typhimurium.
Experiment [3] relates to Staphylococcus aureus.
Experiment [4] relates to Proteus mirabilis.
The subject of experiment [5] is Escherichia coli.
Experiment [6] deals with Staphylococcus epidermidis.
Experiment [7] deals with Shigella dysenteriae.
Experiment [8] has as its system Micrococcus luteus.
Experiment [9] relates to Pseudomonas aeruginosa.
In experiment [10] the test system is Klebsiella pneumoniae.
Experiment [11] relates to Escherichia coli K-12.
Experiment [12] relates to Listeria innocua.
For experiment [13], the system named is Bacillus cereus.
Experiment [14] deals with Leuconostoc lactis.
Experiment [15] relates to Streptococcus uberis.
In experiment [16] the test system is Pasteurella multocida.
Experiment [17] has as its system Staphylococcus aureus USA 300.

In brackets after ≈: the same amount, converted by molar mass.

As for `CC(C)C[C@H](NC(=O)CNC(=O)[C@H](CC(C)C)NC(=O)[C@@H](N)Cc1ccccc1)C(=O)N[C@@H](CC(C)C)C(=O)N[C@@H](Cc1ccccc1)C(=O)N[C@@H](CCCCN)C(=O)N[C@H](C(=O)N[C@@H](C)C(=O)N[C@@H](CO)C(=O)N[C@@H](CCCCN)C(=O)O)C(C)C` [FLGLLFKVASK], the MIC in [1] is not below 40.9 µM; in experiment [2], not below 164 µM; in [3], 20.4 µM (≈ 25 µg/mL); in [4] it was not below 164 µM; in experiment [5], 164 µM (≈ 200 µg/mL); in experiment [6] it was not below 40.9 µM. The minimum inhibitory concentration (MIC) is not below 164 µM in experiment [7], 10.2 µM (≈ 12.5 µg/mL) in [8], more than 164 µM in experiment [9] and 81.8 µM (≈ 100 µg/mL) in experiment [10].

`CC[C@H](C)[C@H](NC(=O)[C@H](CCCCN)NC(=O)[C@H](CCC(N)=O)NC(=O)[C@@H](NC(=O)[C@@H](NC(=O)[C@H](CCCCN)NC(=O)[C@@H](N)CCCCN)[C@@H](C)CC)C(C)C)C(=O)N[C@@H](CCCCN)C(=O)N[C@@H](CC(=O)O)C(=O)N[C@@H](Cc1ccccc1)C(=O)N[C@@H](CC(C)C)C(=O)N[C@@H](CCCCN)C(N)=O` [KKIVQKIKDFLK] displayed a minimum inhibitory concentration (MIC) in experiment [11] not below 106 µM.

Take `CC[C@H](C)[C@H](NC(=O)[C@H](CO)NC(=O)CNC(=O)[C@@H](NC(=O)[C@H](CC(C)C)NC(=O)CN)[C@@H](C)CC)C(=O)NCC(=O)N[C@@H](CCCCN)C(=O)N[C@@H](C)C(=O)N[C@@H](CC(C)C)C(=O)NCC(=O)NCC(=O)N[C@@H](CC(C)C)C(=O)N[C@@H](CC(C)C)C(=O)N[C@H](C(=O)N[C@@H](CC(=O)O)C(=O)N[C@H](C(=O)N[C@@H](CC(C)C)C(=O)N[C@@H](CCCCN)C(=O)N1CCC[C@H]1C(=O)N[C@@H](CCCCN)C(=O)N[C@@H](CC(C)C)C(=O)N[C@@H](CCC(N)=O)C(=O)N[C@@H](C)C(=O)N[C@@H](C)C(=O)N[C@@H](CO)C(=O)O)C(C)C)C(C)C` [GLIGSIGKALGGLLVDVLKPKLQAAS]: the MIC in experiment [12] is not below 39.7 µM; in experiment [13], not below 39.7 µM; in experiment [3], more than 39.7 µM; in experiment [14] it was not below 39.7 µM; in experiment [5], more than 39.7 µM; in experiment [6] it was not below 39.7 µM. Besides, the MIC in experiment [15], in experiment [8] and in [16] was not below 39.7 µM in each case.

Regarding `CC[C@H](C)[C@H](NC(=O)[C@H](CCCCN)NC(=O)[C@H](CO)NC(=O)[C@H](C)NC(=O)[C@@H](NC(=O)[C@H](CCCCN)NC(=O)[C@H](CCCCN)NC(=O)[C@@H](NC(=O)[C@@H](NC(=O)[C@H](CC(=O)O)NC(=O)[C@H](Cc1ccccc1)NC(=O)[C@H](CC(C)C)NC(=O)CN)C(C)C)[C@@H](C)CC)C(C)C)C(=O)NCC(=O)NCC(=O)N[C@@H](CC(C)C)C(N)=O` [GLFDVIKKVASKIGGL], the MIC in [12] is 30.4 µM (≈ 50 µg/mL); in experiment [13], not below 60.8 µM; in experiment [3] it was more than 60.8 µM; in experiment [14], 7.29 µM (≈ 12 µg/mL); in experiment [5] it was 60.8 µM (≈ 99.9 µg/mL); in [6] it was not below 60.8 µM. Also, the MIC in [15], in experiment [8] and in [16] was not below 60.8 µM throughout.

Take `CC[C@H](C)[C@H](NC(=O)[C@H](CC(=O)O)NC(=O)[C@H](Cc1ccccc1)NC(=O)[C@H](CC(C)C)NC(=O)CN)C(=O)N[C@H](C(=O)N[C@@H](CCCCN)C(=O)N[C@@H](CCCCN)C(=O)N[C@H](C(=O)N[C@@H](C)C(=O)N[C@@H](CO)C(=O)N[C@H](C(=O)N[C@H](C(=O)NCC(=O)NCC(=O)N[C@@H](CC(C)C)C(N)=O)[C@@H](C)CC)C(C)C)C(C)C)[C@@H](C)CC` [GLFDIIKKVASVIGGL]: the MIC was 15.3 µM (≈ 25 µg/mL) in experiment [12]; 15.3 µM (≈ 25 µg/mL) in experiment [13]; 15.3 µM (≈ 25 µg/mL) in experiment [3]; 3.68 µM (≈ 6 µg/mL) in [14]; more than 61.4 µM in experiment [5]; 15.3 µM (≈ 25 µg/mL) in [6]. Besides, the MIC was 7.36 µM (≈ 12 µg/mL) in [15], 7.36 µM (≈ 12 µg/mL) in experiment [8] and not below 61.4 µM in experiment [16].

Consider `CC(C)C[C@H](NC(=O)[C@@H](NC(=O)[C@H](CCCCN)NC(=O)[C@H](CO)NC(=O)[C@H](C)NC(=O)[C@@H](NC(=O)[C@H](CCCCN)NC(=O)[C@H](Cc1ccccc1)NC(=O)[C@H](CC(C)C)NC(=O)[C@H](C)NC(=O)[C@H](CCCCN)NC(=O)[C@H](CC(C)C)NC(=O)[C@@H](N)Cc1ccccc1)C(C)C)C(C)C)C(=O)O` [FLKALFKVASKVL], for which the MIC in experiment [1] is 8.54 µM (≈ 12.5 µg/mL); in experiment [2] it was 8.54 µM (≈ 12.5 µg/mL); in experiment [3], 2.12 µM (≈ 3.1 µg/mL); in [4] it was not below 137 µM; in [5], 4.3 µM (≈ 6.3 µg/mL); in experiment [6], 2.12 µM (≈ 3.1 µg/mL). Further, the MIC in experiment [7] came to 4.3 µM (≈ 6.3 µg/mL); in [8] it was 2.12 µM (≈ 3.1 µg/mL); in experiment [9] it was 17.1 µM (≈ 25 µg/mL); in experiment [10] it was 2.12 µM (≈ 3.1 µg/mL).

For `CC[C@H](C)[C@H](NC(=O)[C@H](CC(C)C)NC(=O)CNC(=O)[C@H](CO)NC(=O)[C@@H](NC(=O)[C@H](CC(C)C)NC(=O)[C@@H](N)CC(N)=O)C(C)C)C(=O)N[C@@H](CCC(=O)O)C(=O)N[C@@H](C)C(=O)N[C@@H](CCCNC(=N)N)C(=O)N[C@@H](CCCCN)C(=O)N[C@@H](Cc1ccc(O)cc1)C(=O)N[C@@H](CC(C)C)C(=O)N[C@@H](CCC(=O)O)C(=O)N[C@@H](CCC(N)=O)C(=O)N[C@@H](CC(C)C)C(=O)N[C@@H](Cc1cnc[nH]1)C(=O)N[C@@H](CCCNC(=N)N)C(=O)N[C@@H](CCCCN)C(=O)N[C@@H](CC(C)C)C(=O)N[C@@H](CCCCN)C(=O)N[C@@H](CC(N)=O)C(=O)N[C@@H](CCCNC(=N)N)C(=O)N[C@@H](CCCCN)C(=O)N[C@H](C(=O)O)C(C)C` [NLVSGLIEARKYLEQLHRKLKNRKV], the MIC in experiment [17] and in [11] was not below 92 µM throughout.

Turning to `CC[C@H](C)[C@H](NC(=O)[C@@H](NC(=O)[C@H](CO)NC(=O)[C@H](C)NC(=O)[C@@H](NC(=O)[C@H](CCCCN)NC(=O)[C@H](CCCCN)NC(=O)[C@@H](NC(=O)[C@@H](NC(=O)[C@H](CC(=O)O)NC(=O)[C@H](Cc1ccccc1)NC(=O)[C@H](CC(C)C)NC(=O)CN)C(C)C)[C@@H](C)CC)C(C)C)C(C)C)C(=O)NCC(=O)N[C@@H](CC(C)C)C(=O)N[C@@H](C)C(=O)N[C@@H](CO)C(=O)N1CCC[C@H]1C(=O)O` [GLFDVIKKVASVIGLASP], the MIC in experiment [12] was not below 55.1 µM; in [13], not below 55.1 µM; in [3], more than 55.1 µM; in [14], 27.6 µM (≈ 50 µg/mL); in [5], more than 55.1 µM; in [6], not below 55.1 µM. Further, the MIC in experiment [15], in [8] and in experiment [16] was not below 55.1 µM in each case.

As for `CC[C@H](C)[C@H](NC(=O)[C@@H](NC(=O)[C@H](CO)NC(=O)[C@H](C)NC(=O)[C@@H](NC(=O)[C@H](CCCCN)NC(=O)[C@H](CCCCN)NC(=O)[C@@H](NC(=O)[C@@H](NC(=O)[C@H](CC(=O)O)NC(=O)[C@H](Cc1ccccc1)NC(=O)[C@H](CC(C)C)NC(=O)CN)C(C)C)[C@@H](C)CC)C(C)C)C(C)C)C(=O)NCC(=O)NCC(=O)N[C@@H](C)C(N)=O` [GLFDVIKKVASVIGGA], the MIC was not below 63.5 µM in [12]; not below 63.5 µM in experiment [13]; more than 63.5 µM in experiment [3]; 15.9 µM (≈ 25 µg/mL) in [14]; more than 63.5 µM in experiment [5]; not below 63.5 µM in experiment [6]. Also, the MIC in experiment [15], in experiment [8] and in experiment [16] was not below 63.5 µM throughout.

The MIC is the least concentration at which growth counts as inhibited. Higher therefore signals a less susceptible organism.
